Measured values from PMC10057066, “Unraveling the Aquaporin-3 Inhibitory Effect of Rottlerin by Experimental and Computational Approaches” (International Journal of Molecular Sciences, 2023).

Molecular target: T1, aquaporin-3 (AQP3) (Homo sapiens, UniProt Q92482)
T1 construct: human AQP3 C-terminally GFP-tagged, expressed in aqy-null S. cerevisiae; endogenous AQP3 in human red blood cells
T1 sequence (Q92482 1-292): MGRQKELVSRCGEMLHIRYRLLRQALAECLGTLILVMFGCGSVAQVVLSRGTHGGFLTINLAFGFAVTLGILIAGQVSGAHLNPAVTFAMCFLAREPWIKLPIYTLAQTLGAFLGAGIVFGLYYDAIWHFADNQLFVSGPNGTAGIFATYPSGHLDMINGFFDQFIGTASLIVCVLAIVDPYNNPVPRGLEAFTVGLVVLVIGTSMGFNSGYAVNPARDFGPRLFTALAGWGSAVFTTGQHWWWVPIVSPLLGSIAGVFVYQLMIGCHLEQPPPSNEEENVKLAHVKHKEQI
Test: stopped-flow glycerol permeability in hRBCs (IC50), confirmed in hAQP3-expressing yeast ([…] inhibition at […])
Format: cell-based

With CC(=O)c1c(O)c(C)c(O)c(Cc2c(O)c3c(c(C(=O)/C=C/c4ccccc4)c2O)OC(C)(C)C=C3)c1O [RoT, Rottlerin] the IC50 was 6.7 ± 2.97 µM.
